For the data set the following is noted: for aqueous solubility: pH 6.8.

The structures appear in SMILES notation. Converted amounts (≈) assume the structure as drawn.

`Cc1ccc(C(=O)NCCc2ccc(F)cc2)o1`: the MDR1-MDCK efflux ratio came to 0.511; the intrinsic clearance, human liver microsomes is 22 mL/min/kg; the intrinsic clearance, rat liver microsomes came out at 140 mL/min/kg.
Turning to `COc1ncccc1CNc1ncnc2c1cnn2C`, the MDR1-MDCK efflux ratio turned out to be 0.967; the intrinsic clearance, human liver microsomes is at most 4.74 mL/min/kg; the intrinsic clearance, rat liver microsomes is 28.8 mL/min/kg; the aqueous solubility (in general, the concentration that dissolves in the medium under given conditions) stood at 46.6 µg/mL (≈ 172 µM).
As to `CC(C)n1cnnc1SCOCc1ccccc1`, the MDR1-MDCK efflux ratio worked out at 0.711; the intrinsic clearance, human liver microsomes is at most 4.74 mL/min/kg; the intrinsic clearance, rat liver microsomes was determined as 219 mL/min/kg.
`CCc1cc(NC(=O)Cc2c(C)nc3nc(SC)nn3c2C)[nH]n1`: the aqueous solubility worked out at 15.8 µg/mL (≈ 45.8 µM).
Take `CCNC1=N[C@@H]2[C@@H](O)[C@@H](O)[C@H](CO)O[C@@H]2S1`: the intrinsic clearance, human liver microsomes is at most 4.74 mL/min/kg and the intrinsic clearance, rat liver microsomes was at most 10.7 mL/min/kg.
For the molecule `CCN(CC)C(=O)c1ccc(NC(C)=O)cc1`, the MDR1-MDCK efflux ratio came to 1.95; the intrinsic clearance, human liver microsomes was at most 4.74 mL/min/kg; the intrinsic clearance, rat liver microsomes stood at 25.6 mL/min/kg; the aqueous solubility is 34.6 µg/mL (≈ 148 µM).
With `CCn1cnnc1CN(C)C1CCN(c2ccccc2F)CC1`, the MDR1-MDCK efflux ratio is 2.68; the intrinsic clearance, human liver microsomes was at most 4.74 mL/min/kg; the intrinsic clearance, rat liver microsomes stood at 340 mL/min/kg.
The matching figures for `CC(=O)N1CCN(Cc2nc(O)cc(C(F)(F)F)n2)C(C)(C)C1`: 26.6, at most 4.74 mL/min/kg and at most 10.7 mL/min/kg.
Take `O=C(Nc1ccn(Cc2ccc(O)cc2C(F)(F)F)n1)c1c(F)cccc1F`: the MDR1-MDCK efflux ratio was found to be 2.23; the intrinsic clearance, human liver microsomes worked out at 16.7 mL/min/kg; the intrinsic clearance, rat liver microsomes amounted to 438 mL/min/kg; the aqueous solubility came to 43.5 µg/mL (≈ 109 µM).
Consider `CCC(=O)NCCNC(=O)c1cc(-c2ccccc2)nc2ccccc12`, for which the MDR1-MDCK efflux ratio was 15.1; the intrinsic clearance, human liver microsomes amounted to 13.3 mL/min/kg; the intrinsic clearance, rat liver microsomes amounted to 80.3 mL/min/kg; the aqueous solubility was found to be 18.7 µg/mL (≈ 53.8 µM).
The matching figures for `CSCCc1nc(-c2cc(C)nc3cc(F)ccc23)n(CCO)n1`: 21.8, 16.9 mL/min/kg, 147 mL/min/kg and 24 µg/mL (≈ 69.4 µM).
`CN(Cc1ccccc1Br)C(=O)Nc1ccc(C(=O)N2CCCC2)cc1`: the MDR1-MDCK efflux ratio stood at 9.97; the intrinsic clearance, human liver microsomes came to 14.6 mL/min/kg; the intrinsic clearance, rat liver microsomes was determined as 767 mL/min/kg; the aqueous solubility is 69.4 µg/mL (≈ 167 µM).
Turning to `CC(C)(C)c1ccc(C(=O)Nc2cn3cc(-n4ccnc4)ccc3n2)cc1`, the MDR1-MDCK efflux ratio was found to be 2.85; the intrinsic clearance, human liver microsomes is 60.4 mL/min/kg; the intrinsic clearance, rat liver microsomes amounted to 25.6 mL/min/kg; the aqueous solubility stood at 2.75 µg/mL (≈ 7.65 µM).
Regarding `COc1ccc2cc(C(=O)NCc3nnc4n3CCCCC4)ccc2c1`, the MDR1-MDCK efflux ratio was 35.2; the intrinsic clearance, human liver microsomes was determined as 13.8 mL/min/kg; the intrinsic clearance, rat liver microsomes is 655 mL/min/kg.
In the same order, the values of `O=C(c1cc(F)ccc1F)N1CCN(C(=O)C2CC2)CC1` are 1.21, at most 4.74 mL/min/kg and 19.8 mL/min/kg.
For the molecule `CCc1cc2c(N(C)CCO)ncnc2s1`, the MDR1-MDCK efflux ratio was 0.676; the intrinsic clearance, human liver microsomes is 73.6 mL/min/kg; the intrinsic clearance, rat liver microsomes worked out at 139 mL/min/kg; the aqueous solubility stood at 40.9 µg/mL (≈ 172 µM).
In the same order, the values of `Cc1cc(C(=O)N(C)C2CCC2)n2nccc2n1` are 0.719, at most 4.74 mL/min/kg, at most 10.7 mL/min/kg and 90.9 µg/mL (≈ 372 µM).
Consider `O=C(COc1ncnc2ccccc12)NC12CC3CC(CC(C3)C1)C2`, for which the MDR1-MDCK efflux ratio amounted to 1.2; the intrinsic clearance, human liver microsomes turned out to be 62.2 mL/min/kg; the intrinsic clearance, rat liver microsomes was determined as 468 mL/min/kg; the aqueous solubility was 60.3 µg/mL (≈ 179 µM).

For the origin of these results see the Biogen ADME set (Fang et al. 2023).
